Some test systems named below: MDA-N; HCC-2998 colon; SNB-75 CNS; SN12C renal; SF-295 CNS; LOX IMVI melanoma; RXF 393 renal; HOP-62 NSCLC; HOP-92 NSCLC; MDA-MB-231 breast; SK-MEL-5 melanoma.
Common to all, as to assay: DTP human tumour cell line panel, 48 h

Each structure is given as a SMILES string.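 Results reflect a 48-hour exposure of cells in 96-well plates to compound at five concentrations. TGI: total growth inhibition.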

What is called TGI is the concentration at which net growth stops. As to `CCCC[Si](CCCC)(CCCC)O[C@@H](/C=C/C(=O)OCC)[C@H](Cc1ccccc1)O[Si](CCCC)(CCCC)CCCC`, the TGI in the experiment on MDA-N, with HCC-2998 colon, in the experiment with SNB-75 CNS, in the experiment with SN12C renal, with SF-295 CNS and in the experiment on LOX IMVI melanoma was over 100 µM throughout. For the same compound, the total growth inhibition concentration (TGI) in the experiment with RXF 393 renal, with HOP-62 NSCLC, in the experiment on HOP-92 NSCLC and with MDA-MB-231 breast was over 100 µM in each case.

Take `N=C(N)c1ccc(-c2ccc(-c3ccc(C(=N)N)cc3)o2)cc1`: the TGI in the experiment with MDA-N is over 100 µM; in the experiment with SNB-75 CNS, over 100 µM; in the experiment with SN12C renal, 57.3 µM; with SF-295 CNS it was over 100 µM; with RXF 393 renal it was over 100 µM; in the experiment with HOP-62 NSCLC, over 100 µM. Moreover, the TGI in the experiment on HOP-92 NSCLC is over 100 µM; in the experiment with MDA-MB-231 breast, over 100 µM; in the experiment with SK-MEL-5 melanoma, 33 µM.

Regarding `CC(C)=CCC/C(C)=C/CC/C(C)=C/CC/C(C=O)=C/CC/C(C)=C\CC/C(C)=C/CC/C(C)=C/CC/C(C)=C/CC1=CC(=O)C=CC1=O`, the TGI in the experiment with MDA-N is over 100 µM; in the experiment with HCC-2998 colon, over 100 µM; with SNB-75 CNS it was 96.1 µM; with SN12C renal, over 100 µM; in the experiment on SF-295 CNS, over 100 µM; in the experiment on LOX IMVI melanoma, over 100 µM. Moreover, the TGI in the experiment on HOP-62 NSCLC, in the experiment with HOP-92 NSCLC, in the experiment with MDA-MB-231 breast and in the experiment on SK-MEL-5 melanoma was over 100 µM each time.

As for `COc1cc(OC)nc(NC(=O)NS(=O)(=O)c2cccc3ncn(C)c(=O)c23)n1`, the TGI in the experiment on MDA-N, in the experiment with SNB-75 CNS, in the experiment on SN12C renal, in the experiment on SF-295 CNS, in the experiment with LOX IMVI melanoma and in the experiment on RXF 393 renal was over 100 µM in each case. For the same compound, the TGI in the experiment with HOP-62 NSCLC, with HOP-92 NSCLC, in the experiment with MDA-MB-231 breast and in the experiment on SK-MEL-5 melanoma was over 100 µM each time.

Take `Cc1ccc(S(=O)(=O)N/N=C2/CC[C@H](C(C)(C)C)C[C@@H]2C)cc1`: the TGI in the experiment with MDA-N was 34.3 µM; with HCC-2998 colon, 33.5 µM; with SNB-75 CNS, 39 µM; in the experiment with SN12C renal, 30.4 µM; with SF-295 CNS it was 29.2 µM; in the experiment with LOX IMVI melanoma, 27.9 µM. The concentration for total growth inhibition (TGI) in the experiment with HOP-62 NSCLC was 26.9 µM; in the experiment on HOP-92 NSCLC, 33.4 µM; in the experiment on MDA-MB-231 breast, 43.7 µM; in the experiment with SK-MEL-5 melanoma, 26.8 µM.

Take `CC1OC2OC3C(OCC(O)C3O)OC(=O)[C@]34CCC(C)(C)CC3C3=CCC5[C@@]6(C)C[C@H](O)[C@H](OC7OC(CO)C(O)C(O)C7OC7OC(COC(=O)CC(C)(O)CC(=O)OC1C(O)C2O)C(O)C(O)C7O)[C@@](C)(CO)C6CC[C@@]5(C)[C@]3(C)CC4` (stereo partly drawn): the TGI worked out at 2.73 µM in the experiment with MDA-N; 2.63 µM in the experiment on HCC-2998 colon; 2.89 µM in the experiment on SNB-75 CNS; 4.37 µM with SN12C renal; 3.1 µM with SF-295 CNS; 2.91 µM in the experiment with LOX IMVI melanoma. Besides, the TGI came to 2.69 µM with HOP-62 NSCLC, 2.94 µM with HOP-92 NSCLC, 3.11 µM with MDA-MB-231 breast and 2.34 µM in the experiment with SK-MEL-5 melanoma.

For `COc1ccc(N=C2C(=Nc3ccc(OC)cc3)N(c3ccccc3[N+](=O)[O-])C(=S)N2c2ccc(OC)cc2)cc1`, the concentration for total growth inhibition (TGI) in the experiment on MDA-N, in the experiment with HCC-2998 colon, with SNB-75 CNS, in the experiment with SN12C renal, in the experiment on SF-295 CNS and in the experiment with RXF 393 renal was over 100 µM in each case. In addition, the TGI with HOP-62 NSCLC was over 100 µM; in the experiment with HOP-92 NSCLC, over 100 µM; in the experiment on MDA-MB-231 breast, 90.9 µM; with SK-MEL-5 melanoma, over 100 µM.

`Oc1ccc2c3c1OC1c4[nH]c5c(c4CC4(O)C(C2)N(CC2CC2)CC[C@]314)CC1(O)C2Cc3ccc(O)c4c3[C@@]1(CCN2CC1CC1)C5O4` (stereo partly drawn): the TGI in the experiment on MDA-N was 38.9 µM; with HCC-2998 colon it was 36.7 µM; with SN12C renal, over 100 µM; in the experiment on SF-295 CNS, 40 µM; in the experiment on LOX IMVI melanoma, 83.2 µM; in the experiment on RXF 393 renal, 82.2 µM. The TGI is over 100 µM in the experiment with HOP-62 NSCLC, 85 µM with HOP-92 NSCLC, 46.1 µM in the experiment with MDA-MB-231 breast and over 100 µM in the experiment with SK-MEL-5 melanoma.

On to `Clc1cccc(Cl)c1C1SCc2nc3ncccc3n21` (stereo not drawn), for which the TGI in the experiment on MDA-N, in the experiment with HCC-2998 colon, with SNB-75 CNS, in the experiment on SN12C renal, in the experiment with SF-295 CNS and in the experiment with LOX IMVI melanoma was over 100 µM in each case. Besides, the TGI with RXF 393 renal, in the experiment with HOP-62 NSCLC, with MDA-MB-231 breast and with SK-MEL-5 melanoma was over 100 µM throughout.

As to `CO[C@H]1C[C@H](O[C@H]2CC[C@]3(C=O)[C@H]4CC[C@]5(C)[C@@H](C6=CC(=O)OC6)CC[C@]5(O)[C@@H]4CC[C@]3(O)C2)O[C@H](C)[C@H]1O[C@@H]1O[C@H](CO[C@@H]2O[C@H](CO)[C@@H](O)[C@H](O)[C@H]2O)[C@@H](O)[C@H](O)[C@H]1O`, the TGI with MDA-N was determined as 0.286 µM; in the experiment with SNB-75 CNS, 0.437 µM; with SN12C renal it was 0.11 µM; in the experiment on SF-295 CNS it was 0.161 µM; in the experiment with LOX IMVI melanoma, 0.137 µM; in the experiment on RXF 393 renal, 0.0802 µM. Also, the TGI is 0.0388 µM in the experiment with HOP-62 NSCLC, 0.367 µM with HOP-92 NSCLC, 2.1 µM in the experiment on MDA-MB-231 breast and 0.124 µM in the experiment with SK-MEL-5 melanoma.

Regarding `CC[C@]12C=CCN3CCC4(c5cc(N=Nc6ccc([N+](=O)[O-])cc6)c(OC)cc5N(C)[C@H]4[C@@](O)(C(=O)OC)[C@@H]1OC(C)=O)[C@@H]32` (stereo partly drawn), the total growth inhibition concentration (TGI) was found to be 38.6 µM in the experiment on MDA-N; 35.1 µM in the experiment with SNB-75 CNS; 59.8 µM in the experiment with SN12C renal; 30.8 µM with SF-295 CNS; 47.3 µM with LOX IMVI melanoma; 35.6 µM in the experiment with RXF 393 renal. Moreover, the TGI in the experiment with HOP-62 NSCLC stood at 43.6 µM; in the experiment on HOP-92 NSCLC, 8.62 µM; with MDA-MB-231 breast, 35.9 µM; with SK-MEL-5 melanoma it was 50.1 µM.

With `CC[C@@H]1C[C@@H](O)[C@@H]2[C@H](O)[C@H](O)CN2C1`, the TGI in the experiment with MDA-N, in the experiment with HCC-2998 colon, in the experiment with SNB-75 CNS, in the experiment on SN12C renal, in the experiment on SF-295 CNS and with LOX IMVI melanoma was over 100 µM each time. The TGI in the experiment on HOP-92 NSCLC, in the experiment with MDA-MB-231 breast and in the experiment on SK-MEL-5 melanoma was over 100 µM in each case.

As for `CC(C)C(/C=C/c1ccc(Cl)cc1)=N\NC(=S)NN`, the TGI in the experiment on MDA-N is over 100 µM; in the experiment on HCC-2998 colon, over 100 µM; with SNB-75 CNS it was 91.8 µM; in the experiment on SN12C renal, over 100 µM; with SF-295 CNS it was over 100 µM; in the experiment on LOX IMVI melanoma it was 33.7 µM. Also, the TGI is 96.6 µM with RXF 393 renal, over 100 µM with HOP-62 NSCLC, over 100 µM in the experiment on MDA-MB-231 breast and over 100 µM in the experiment with SK-MEL-5 melanoma.

For the origin of these results see PubChem BioAssay (NCI).
